Assay results published in patent publication US20150045407A1, “MTK1-ACTIN INHIBITORS AND METHODS OF USE” (THE ARIZONA BOARD OF REGENTS ON BEHALF OF THE UNIVERSITY OF …, priority 2013, published 2015).
“Also recorded” adds a separate entry of the source.

What was measured:
[1] = test system: PI3K; settings: Smirnova et al., 2012; cited from earlier work
[2] = test system: MTK1/HER3 association; test: HRG-induced MTK1/HER3 association, MTK1 immunoprecipitation and immunoblot in MCF-7 cells; settings: then 10 nM HRG 12 minutes; for Effect on HRG-induced MTK1/HER3 association: MCF-7 cells pre-treated with 0, 50, 100 or 200 nM lapatinib for 1 hour, pTyr immunoblot of MTK1 IP
Method: (§3) MCF-7 cells were maintained in the same media as T-47D cells and supplemented additionally with 10 μg/ml insulin. Prior to experimental procedures, cells were cultured in DMEM supplemented only with 1% penicillin-streptomycin for 16 hrs. […] Cells were treated with 1 μg/ml Cytochalasin D for 30 minutes prior to addition of HRG.
(§4) Images were obtained using ChemiDoc™ XRS+ (BIO-RAD) and quantification was performed with Image Lab Software. […] All commercial antibodies were used according to manufacturer recommendations.
The cells were then washed twice with ice-cold 1× phosphate buffered saline pH 7.4. […] Immune complexes recovered using protein A-Sepharose beads (Sigma Cat# P3391) were washed twice with ice-cold lysis buffer and denatured with Laemmli sample buffer.

[3] = test system: HER3; test: HER3 phosphorylation in HRG-stimulated MCF-7 cell lysates (immunoblot); settings: for Effect on phosphorylation (activation) of HER3: MCF-7 cell lysates, 1 μg/ml cytochalasin D 30 minutes, then 10 nM HRG 12 minutes
Method: as §3, §4

[4] = test system: MCF-7 cells; test: Scratch assay, HRG-induced cell migration; type: cell-based, human; settings: 250 nM lapatinib pre-treatment, 10 nM HRG
Method: MCF-7 cells were seeded (onto 10 cm cell culture plates, VWR #353003) at a density of 5.0×10^6 cells and allowed to adhere for 16 hours. The cells were then transfected with 434 pmol of siRNA specific for MTK1 (Thermo Scientific ON-TARGETplus SMARTpool, Human MAP3K4 (4216) Cat #L-003789-00-0005) or non-targeting (NS) (ON-TARGETplus Non-targeting Pool Cat #D-001810-10-05) as control using lipofectamine 2000 according to manufacture recommendations. The cells were transfected with siRNA a second time 24 hours later using lipofectamine 2000 to enhance knockdown efficiency. Twenty-four hours after the second transfection the cells were detached using 0.25% trypsin (Invitrogen #15050-065). The cells were counted and seeded onto 12 well plates (VWR #62406-165) at a density of 0.7×10^6 cells per well for pH measurements and scratch assays or at density of 0.4×10^6 cells per well for proliferation assays. MTK1 knockdown efficiency was determined by immunoblot analysis using 150 μg whole cell lysate at 120 hours post-secondary transfection. Each condition was performed in triplicate and repeated a minimum of 3 times. Data shown for each condition represents n=3. Statistical analysis was performed as described above.
Scratch assays were performed in 12-well plates using MCF-7 cells at a density of 0.7×10^6 cells per well. […]

[5] = test system: MCF-7 cells; test: HRG-induced extracellular acidification, media pH measurement; type: cell-based, human
Method: (§1) MCF-7 and T-47D cells were seeded in complete growth media at a density of 0.4×10^6 cells per well in 12-well plates (VWR #62406-165) for proliferation assays and 0.7×10^6 cells per well for pH measurements. Cells were allowed to adhere for 16 hours, followed by 4 hour serum starvation in DMEM, 1% penicillin-streptomycin without fetal bovine serum. […] Each condition was performed in triplicate and repeated a minimum of 3 times. After 24 hours, the cells were counted using a TC-10 Bio-Rad automated cell counter and the media pH was recorded using a pH meter probe. Data shown for each condition represents n=3. A two sided student t-test with standard deviation were used to perform statistical analyses on proliferation rates and media pH measurements. Statistical significance was determined by a p-value ≦0.05.
(§2) MCF-7 cells were seeded (onto 10 cm cell culture plates, VWR #353003) at a density of 5.0×10^6 cells and allowed to adhere for 16 hours. […] The cells were counted and seeded onto 12 well plates (VWR #62406-165) at a density of 0.7×10^6 cells per well for pH measurements and scratch assays or at density of 0.4×10^6 cells per well for proliferation assays. MTK1 knockdown efficiency was determined by immunoblot analysis using 150 μg whole cell lysate at 120 hours post-secondary transfection. […]

[6] = test system: MCF-7 cells; test: Cell proliferation and viability (automated cell count, trypan blue); type: cell-based, human; settings: 10 nM HRG or 3.3 nM EGF, 24 hours
Method: as §1, §2

Q: For Cc1ccc([N+](=O)[O-])cc1S(=O)(=O)N(C)/N=C/c1cnc2ccc(Br)cn12 [PIK-75], which “Effect on cell motility and invasion” value [1] is on record?
A: Its value is “inhibits cell motility and invasion”.

Q: For C=C1[C@@H](C)[C@H]2[C@H](Cc3ccccc3)NC(=O)[C@]23[C@H](OC(C)=O)/C=C/[C@@](C)(O)C(=O)[C@@H](C)C/C=C/[C@H]3[C@@H]1O [cytochalasin D], which “Effect on HRG-induced MTK1/HER3 association (in words)” value ([2]; MCF-7 cells, 1 μg/ml cytochalasin D 30 minutes) is on record?
A: The value was “disrupted the communication or signaling between HER3/ErbB3 and MTK1; also recorded: inhibited HRG induced MTK1/HER3 association; also recorded: inhibited MTK1 and HER3 association”.

Q: And the “Effect on HRG-induced MTK1/HER3 association (in words)” value ([2]; MCF-7 cells, 1 μg/ml cytochalasin D 30 minutes, listed as Cytochalasin D)?
A: The value was “diminished interaction between MTK1 and HER3”.

Q: What about the “Decrease of interaction between HER3 and MTK1” value ([2]; MCF-7 cells, 1 μg/ml cytochalasin D 30 minutes, pY1289 HER3 immunoblot of MTK1 IP) of the same compound?
A: The value was about 60%.

Q: What about the “Effect on phosphorylation (activation) of HER3” value [3] of the same compound?
A: Its value is “not affected; also recorded: remained the same”.

Q: And the “Effect on phosphorylation (activation) of HER3” value ([3]; listed as Cytochalasin D)?
A: Its value is “no effect”.

Q: With CS(=O)(=O)CCNCc1ccc(-c2ccc3ncnc(Nc4ccc(OCc5cccc(F)c5)c(Cl)c4)c3c2)o1 [lapatinib] as the compound, how does the “Effect on HRG-induced MTK1/HER3 association” value [2] read?
A: The value was “effectively inhibited; also recorded: attenuates MTK1/HER3 association; also recorded: inhibited association of MTK1 and HER3”.

Q: And the “Effect on HRG-induced MTK1/HER3 association” value ([2]; listed as Lapatinib)?
A: The value was “decreased the interaction between HER3 and MTK1 in a dose dependent manner”.

Q: And the “Effect of lapatinib on HRG-induced cell migration” value [4]?
A: Its value is “significantly decreased cell migration”.

Q: And the “Effect on HRG-induced extracellular acidification” value ([5]; 250 nM lapatinib pre-treatment, 10 nM HRG 24 hours, media pH)?
A: The value was “significantly decreased; also recorded: inhibition of HRG-induced extracellular acidification”.

Q: And the “Effect on tyrosine phosphorylation of HER3 in lysates” value ([3]; MCF-7 cells, lapatinib 50-200 nM pre-treatment 1 hour, 10 nM HRG 12 minutes)?
A: The value was “effectively inhibited; also recorded: decreased”.

Q: What does the source list for “EGF: growth factor used to stimulate cells at 3.3 nM; activates EGFR and HER2 (NSDSECPLSHDGYCLHDGVCMYIEALDKYACNCVVGYIGERCQYRDLKWWELR; Epidermal growth factor; UniProt P01133 971-1023, looked up)”?
A: Extracellular acidification of cell culture media by stimulation ([5]; 10 nM HRG or 3.3 nM EGF, 24 hours, compared to vehicle): no effect; also recorded: did not induce extracellular acidification; Cell proliferation on stimulation [6]: proliferative response was detected; also recorded: induced cell proliferation
